In patent publication US11149011B2, “Compounds and methods for IDO and TDO modulation, and indications therefor” (Plexxikon Inc., priority 2018, dated 2021) one finds IC50 data, which are given here for 5 compounds.

One assay deals with T1, TDO (Homo sapiens, UniProt P48775).
T1 construct: His tag (N); made in house; host or cells: E. coli
Description: TDO enzymatic assay. The note with it: geometric mean; read-out: TDO GMean: IC50 (μM) (Biochemical Assay). In short, it runs like this:
(§1)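 N-His human enzymes from E. coli in 50 mM sodium phosphate pH 6.5 with ascorbate, catalase, Tween 20. IDO: 6 nM enzyme, 10 μM L-Trp, 5 μM methylene blue, 20 min RT; TDO: 1 nM enzyme, 350 μM L-Trp, 0.4 μM methylene blue, 70 min RT. TCA stop, kynurenine measured; IC50 by nonlinear regression.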

The target of assay [1] is T2, TDO-expressing HEK293 cell clones (Homo sapiens, UniProt P48775).
T2 construct: expressed in transfected cells; host or cells: HEK293
T2 sequence (P48775 whole entry): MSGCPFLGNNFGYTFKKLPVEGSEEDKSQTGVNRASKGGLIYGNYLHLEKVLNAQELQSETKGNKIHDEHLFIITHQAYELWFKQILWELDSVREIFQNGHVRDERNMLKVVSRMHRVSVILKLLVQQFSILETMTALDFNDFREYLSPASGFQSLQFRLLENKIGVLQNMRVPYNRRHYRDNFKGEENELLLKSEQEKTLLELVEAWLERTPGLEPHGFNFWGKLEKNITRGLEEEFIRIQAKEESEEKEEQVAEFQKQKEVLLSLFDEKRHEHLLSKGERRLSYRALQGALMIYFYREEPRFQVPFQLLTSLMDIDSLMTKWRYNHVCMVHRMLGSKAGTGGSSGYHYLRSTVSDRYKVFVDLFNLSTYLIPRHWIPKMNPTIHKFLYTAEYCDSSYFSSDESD
Kind of assay: Cell based kynurenine assay, TDO-expressing HEK293 cell clones. Particulars: HEK293 cells, 24 hours of incubation, geometric mean; read-out: HEK293 TDO Kynurenine GMean IC50 (μM) (Cellular Assay). The procedure, abridged:
(§2)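 HEK293 clones stably transfected with CMV-driven human IDO1 or human TDO were seeded at 2.5×10^4 cells/well and treated with serial compound dilutions for 24 hours. Supernatant kynurenine was measured. % inhibition versus DMSO-cell and media-only controls was fitted by nonlinear regression to give IC50.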

Assay [2] deals with T3, IDO1-expressing HEK293 cell clones (Homo sapiens, UniProt P14902).
T3 construct: expressed in transfected cells; host or cells: HEK293
T3 sequence (P14902 whole entry): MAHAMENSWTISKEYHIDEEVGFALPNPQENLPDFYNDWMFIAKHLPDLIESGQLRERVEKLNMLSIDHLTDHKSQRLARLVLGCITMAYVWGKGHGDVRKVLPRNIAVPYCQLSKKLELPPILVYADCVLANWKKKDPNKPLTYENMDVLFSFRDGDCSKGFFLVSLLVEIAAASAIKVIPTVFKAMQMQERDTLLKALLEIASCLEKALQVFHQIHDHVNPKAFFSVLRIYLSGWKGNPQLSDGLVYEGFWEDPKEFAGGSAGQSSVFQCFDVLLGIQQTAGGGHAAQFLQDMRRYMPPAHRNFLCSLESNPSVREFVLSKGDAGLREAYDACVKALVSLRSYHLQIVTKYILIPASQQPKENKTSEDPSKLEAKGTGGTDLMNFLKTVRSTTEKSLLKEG
Description: Cell based kynurenine assay, IDO1-expressing HEK293 cell clones. The note with it: HEK293 cells, 24 hours of incubation, geometric mean; read-out: HEK293 IDO1 Kynurenine GMean IC50 (μM) (Cellular Assay). In short, it runs like this:
as §2

The target of a further assay is T4, IDO1 (Homo sapiens, UniProt P14902).
T4 construct: His tag (N); made in house; host or cells: E. coli
T4 sequence (P14902 whole entry): as above
Kind of assay: IDO enzymatic assay. The class given is biochemical. Particulars: geometric mean; read-out: IDO1 GMean: IC50 (μM) (Biochemical Assay). The procedure, abridged: as §1

In general, IC50 refers to the concentration at which inhibition is half-maximal.

T1 sequence (P48775 whole entry): as the sequence (P48775 whole entry) above

For the compound `CC(C)(C1CCN(C(=O)Nc2ccc(F)cc2F)CC1)C(O)c1cc(Cl)cc2[nH]ncc12` (centres unmarked) [Compound P-0082, 4-(1-(6-chloro-1H-indazol-4-yl)-1-hydroxy-2-methylpropan-2-yl)-N-(2,4-difluorophenyl)piperidine-1-carboxamide], the IC50 on TDO was 0.0001 to 10 µM; in assay [1], 0.0001 to 10 µM; in assay [2] it was over 10 µM; at IDO1, 0.0001 to 10 µM.

On to `CC(C)(C1CCN(C(=O)Nc2cccnc2)CC1)C(O)c1cc(Cl)cc2[nH]ncc12` (centres unmarked) [Compound P-0075, 4-(1-(6-chloro-1H-indazol-4-yl)-1-hydroxy-2-methylpropan-2-yl)-N-(pyridin-3-yl)piperidine-1-carboxamide], for which the IC50 at TDO is 0.0001 to 10 µM; in assay [1], 0.0001 to 10 µM; in assay [2], over 10 µM; on IDO1, 0.0001 to 10 µM.

For the compound `CCS(=O)(=O)N1CCC(C(C)(C)C(O)c2cc(Cl)cc3[nH]ncc23)CC1` (centres unmarked) [Compound P-0072, 1-(6-chloro-1H-indazol-4-yl)-2-(1-(ethylsulfonyl)piperidin-4-yl)-2-methylpropan-1-ol], the IC50 at TDO is 0.0001 to 10 µM; in assay [1], 0.0001 to 10 µM; in assay [2] it was over 10 µM; at IDO1, 0.0001 to 10 µM.

Turning to `CC(C)(C1CCN(C(=O)NC2CCC(F)(F)CC2)CC1)C(O)c1cc(Cl)cc2[nH]ncc12` (centres unmarked) [Compound P-0112, 4-(1-(6-chloro-1H-indazol-4-yl)-1-hydroxy-2-methylpropan-2-yl)-N-(4,4-difluorocyclohexyl)piperidine-1-carboxamide], the IC50 (on TDO; in assay [1]; in assay [2]; on IDO1) was 0.0001 to 10 µM each time.

`CC(C)(C1CCN(C(=O)NCc2ccncc2)CC1)[C@H](O)c1cc(Cl)cc2cn[nH]c12` [Compound P-0019, (S)-4-(1-(5-chloro-1H-indazol-7-yl)-1-hydroxy-2-methylpropan-2-yl)-N-(pyridin-4-ylmethyl)piperidine-1-carboxamide]: the IC50 (on TDO; in assay [1]; in assay [2]; on IDO1) was 0.0001 to 10 µM throughout.
